ChEMBL document CHEMBL1201862, “PubChem BioAssay data set” (2004)
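Dose response: 5 concentrations. Exposure: 48 h. Format: 96-well plates. Endpoint: linear interpolation; highest concentration if not reached. Here, GI50 denotes the concentration required for 50% inhibition of growth.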 Active and inactive are the calls of the source. Cut-off read from the data, not from the text of the source: active = GI50 up to about 1.1 µM and inactive = higher.

Tests used:
Test in all cases: growth of human tumour cells (NCI), 48 h
[1] = test system: K562
[2] = test system: KM12
[3] = test system: SF-295
[4] = test system: IGROV-1
[5] = test system: SK-MEL-28
[6] = test system: SNB-19
[7] = test system: DMS-273
[8] = test system: SK-MEL-5
[9] = test system: MOLT-4
[10] = test system: OVCAR-4
[11] = test system: SW-620
[12] = test system: HCT-15
[13] = test system: HCT-116
[14] = test system: A549
[15] = test system: NCI-H226
[16] = test system: UO-31
[17] = test system: BT-549
[18] = test system: Hs-578T
[19] = test system: MCF7
[20] = test system: MDA-N

SMILES | GI50 [1] | GI50 [2] | GI50 [3] | GI50 [4] | GI50 [5] | GI50 [6] | GI50 [7] | GI50 [8] | GI50 [9] | GI50 [10] | GI50 [11] | GI50 [12] [µM] | GI50 [13] | GI50 [14] | GI50 [15] | GI50 [16] | GI50 [17] | GI50 [18] | GI50 [19] | GI50 [20]
O=C1CCCCC1S(=O)(=O)c1ccccc1 (centres undefined) | > 100 µM (inactive) | > 100 µM (inactive) | > 100 µM (inactive) | > 100 µM (inactive) | > 100 µM (inactive) | > 100 µM (inactive) | > 100 µM (inactive) | > 100 µM (inactive) | > 100 µM (inactive) | > 100 µM (inactive) | > 100 µM (inactive) | > 100 | > 100 µM (inactive) | > 100 µM (inactive) | > 100 µM (inactive) | > 100 µM (inactive) |  |  |  | 
COc1cccc2c1C1(O)C2CCCCCCCCCC12OCCCO2 (centres undefined) | 6.19 µM (inactive) | > 38 µM (inactive) | 15.1 µM (inactive) | 41.3 µM (inactive) | > 100 µM (inactive) | 27.7 µM (inactive) | > 100 µM (inactive) | 21.6 µM (inactive) | 6.3 µM (inactive) | > 100 µM (inactive) | > 46.7 µM (inactive) | 4.93 | 6.81 µM (inactive) | > 34.5 µM (inactive) | > 47.9 µM (inactive) | > 43.3 µM (inactive) | 92 µM (inactive) | > 100 µM (inactive) | 19.8 µM (inactive) | 35.2 µM (inactive)
C=C1C(=O)OC2/C=C(\C)C3OC3/C=C(/C(=O)OC)C(OC(C)=O)C(OC(=O)C(C)(O)C(C)OC(C)=O)C12 (centres undefined) | 0.741 µM (active) | 2.49 µM (inactive) | 9.2 µM (inactive) | 1.98 µM (inactive) | 2.23 µM (inactive) | 14.5 µM (inactive) | 1.57 µM (inactive) | 2.5 µM (inactive) | 0.647 µM (active) | 3.5 µM (inactive) | 0.796 µM (active) | 6.24 | 1.27 µM (inactive) | 14.6 µM (inactive) | 6.89 µM (inactive) | 6.52 µM (inactive) | 1.04 µM (active) | 6.21 µM (inactive) | 0.736 µM (active) | 2.69 µM (inactive)
O=C1[C@H]2ON(c3ccccc3)C(c3ccc(Cl)cc3Cl)[C@H]2C(=O)N1c1ccc(Cc2ccc(N3C(=O)[C@@H]4ON(c5ccccc5)C(c5ccc(Cl)cc5Cl)[C@@H]4C3=O)cc2)cc1 (some centres undefined) | > 100 µM (inactive) | > 100 µM (inactive) | > 100 µM (inactive) | > 100 µM (inactive) | > 100 µM (inactive) | > 100 µM (inactive) | > 100 µM (inactive) | 73.1 µM (inactive) | > 100 µM (inactive) | > 100 µM (inactive) | > 100 µM (inactive) | > 100 | > 100 µM (inactive) | > 100 µM (inactive) | > 100 µM (inactive) | > 100 µM (inactive) |  |  |  | 
NC(Cc1ccc2oc3cc(=O)c4ccccc4c-3nc2c1)C(=O)O (centres undefined) | 34.2 µM (inactive) | 39.2 µM (inactive) | 22.3 µM (inactive) | 68.2 µM (inactive) | 25.8 µM (inactive) | 22.3 µM (inactive) | 22.4 µM (inactive) | 4.92 µM (inactive) | 41.1 µM (inactive) | 67.5 µM (inactive) | 29.3 µM (inactive) | 17.8 | 36 µM (inactive) | 16.7 µM (inactive) | 27.3 µM (inactive) | 33.8 µM (inactive) | 14.4 µM (inactive) | 11.7 µM (inactive) | 2.86 µM (inactive) | 6.73 µM (inactive)
CC(=O)COC(=O)CC(C)=O | > 100 µM (inactive) | > 100 µM (inactive) | > 100 µM (inactive) | > 100 µM (inactive) | > 100 µM (inactive) | > 100 µM (inactive) | > 100 µM (inactive) |  | > 100 µM (inactive) | > 100 µM (inactive) | > 100 µM (inactive) | > 100 | > 100 µM (inactive) | > 100 µM (inactive) | > 100 µM (inactive) | > 100 µM (inactive) |  |  |  | 
CSc1n[n+]2c(s1)SCCC2 | > 100 µM (inactive) | 44.7 µM (inactive) | > 100 µM (inactive) | 25.8 µM (inactive) | > 100 µM (inactive) | > 100 µM (inactive) | > 100 µM (inactive) | 46.5 µM (inactive) | > 100 µM (inactive) | > 100 µM (inactive) | 66.1 µM (inactive) |  | > 100 µM (inactive) | 20.5 µM (inactive) |  | 19.8 µM (inactive) |  |  |  | 
NS(=O)(=O)c1ccc(Nc2c3ccccc3nc3c(C(=O)N4CCN(CCO)CC4)cccc23)cc1 | 53.2 µM (inactive) | 93.5 µM (inactive) | > 100 µM (inactive) | > 100 µM (inactive) | > 100 µM (inactive) | > 100 µM (inactive) | 82.6 µM (inactive) | > 100 µM (inactive) | 40.2 µM (inactive) | > 100 µM (inactive) | > 100 µM (inactive) | > 100 | > 100 µM (inactive) | > 100 µM (inactive) | > 100 µM (inactive) | > 100 µM (inactive) |  |  |  | 
C/C(=N\N=C(N)N)c1sc(-c2nc(C)c(/C(C)=N/N=C(N)N)s2)nc1C | > 67.8 µM (inactive) | > 36.2 µM (inactive) | > 100 µM (inactive) | > 100 µM (inactive) | > 100 µM (inactive) | > 100 µM (inactive) | > 100 µM (inactive) | > 100 µM (inactive) | > 57.9 µM (inactive) | > 85.5 µM (inactive) | > 100 µM (inactive) | > 46 | > 100 µM (inactive) | > 100 µM (inactive) | > 100 µM (inactive) | > 91 µM (inactive) |  |  |  | 
Cc1cc2oc(=O)[nH]c(=S)c2c(C)c1C | > 100 µM (inactive) | > 100 µM (inactive) | > 100 µM (inactive) | > 100 µM (inactive) | > 100 µM (inactive) | > 100 µM (inactive) | > 100 µM (inactive) |  | > 100 µM (inactive) | 45.2 µM (inactive) | > 100 µM (inactive) | > 100 | > 100 µM (inactive) | > 100 µM (inactive) | > 100 µM (inactive) | > 100 µM (inactive) |  |  |  | 
COc1cc2c(cc1OC)[C@H]1C(COC(=O)Nc3ccccc3)CN1CC2 (some centres undefined) | > 100 µM (inactive) | > 100 µM (inactive) | > 100 µM (inactive) | > 100 µM (inactive) | > 100 µM (inactive) | > 100 µM (inactive) | > 100 µM (inactive) | 53.8 µM (inactive) | 95.5 µM (inactive) | > 100 µM (inactive) | > 100 µM (inactive) | > 100 | > 100 µM (inactive) | > 100 µM (inactive) |  | > 100 µM (inactive) |  |  |  | 
CCCCCCCCCCCCCCCCCC(=O)O[C@H](COC(=O)CCCCCCCCCCC)COC(=O)CCCCCCCCCCCCCCC | > 100 µM (inactive) |  | > 100 µM (inactive) | > 100 µM (inactive) | > 100 µM (inactive) | > 100 µM (inactive) | > 100 µM (inactive) | > 100 µM (inactive) | > 100 µM (inactive) | > 100 µM (inactive) | > 100 µM (inactive) | > 100 | > 100 µM (inactive) | > 100 µM (inactive) | > 100 µM (inactive) | > 100 µM (inactive) |  |  |  | 
CCCCCCCCCCCCCCCCOCC(CN(C)CCN(C)C)OCCCCCCCCCCCCCCCC (centres undefined) | > 100 µM (inactive) | > 100 µM (inactive) | > 100 µM (inactive) | > 100 µM (inactive) | > 100 µM (inactive) | > 100 µM (inactive) | > 100 µM (inactive) | > 100 µM (inactive) | > 100 µM (inactive) | > 100 µM (inactive) | > 100 µM (inactive) | > 100 | > 100 µM (inactive) | > 100 µM (inactive) | > 100 µM (inactive) | > 100 µM (inactive) |  |  |  | 
C=C(C)C1Cc2c(cc(OC)c3c(=O)c4ccccc4n(C)c23)O1 (centres undefined) | 57.5 µM (inactive) | > 100 µM (inactive) | > 100 µM (inactive) | > 100 µM (inactive) | 49 µM (inactive) | > 100 µM (inactive) | 91.6 µM (inactive) | > 100 µM (inactive) |  | > 100 µM (inactive) | > 100 µM (inactive) | 83.6 | > 100 µM (inactive) | > 100 µM (inactive) | > 100 µM (inactive) | > 100 µM (inactive) |  |  |  | 
O=C(/C=C/c1ccc(O)cc1)c1ccc(O)cc1 [4,4'-DIHYDROXYCHALCONE] | 27.2 µM (inactive) | 11.9 µM (inactive) | 31.8 µM (inactive) | 32.1 µM (inactive) | 28.1 µM (inactive) | 32.7 µM (inactive) | 16.5 µM (inactive) | 21.5 µM (inactive) | 19.3 µM (inactive) | > 69.8 µM (inactive) | 26.1 µM (inactive) | 20.3 | 16.8 µM (inactive) | 30.5 µM (inactive) | 16.8 µM (inactive) | 22 µM (inactive) | 32.6 µM (inactive) | 27 µM (inactive) | 32.9 µM (inactive) | 27.4 µM (inactive)
